The values below come from patent US20230002346A1, “NEW COMPOUNDS AND METHODS” (BenevolentAl Bio Limited, priority 2019, published 2023).

A short description of series [1]: Rat PK profile (bioavailability, clearance, half-life). Particulars: male, Sprague Dawley, plasma, i.v. dose 0.5 mg/kg. Type of series: in vivo. On the procedure:
Male Sprague Dawley Rats 300-350 g (Charles River, UK) were group housed, n=3, under a 12 h light/dark cycle with food and water available ad libitum. At 17:00 on the day prior to dosing all food was removed. On the day of dosing animals were weighed, tail marked and dosed via oral gavage with compound at 3 mg/kg in a volume of 5 mL/kg. Animals were culled at 30 min, 1 h and 4 h post dose via intra-peritoneal administration of pentobarbital. Post mortem blood was withdrawn via cardiac puncture, and briefly stored in K2 EDTA blood tubes on ice before being spun at 14,000 g for 4 min at 4° C. Plasma was withdrawn into a 96 well plate, placed on dry ice and stored at −80° C. Brains were quickly dissected and placed on dry ice before storage at −80° C. Bioanalysis of plasma and brain samples is performed as detailed below. Methods were prepared with guidance from industry standard documents.^i,ii
A 10 mM DMSO stock is used to prepare spiking solutions of test compound in the range of 10-100,000 ng/mL in diluent (MeCN:water, 1;1). Calibration lines are prepared in control male Sprague-Dawley Rat plasma at known concentrations in the range of 1-10000 ng/mL by spiking 2.5 μL of calibration spiking solution into 25 μL control plasma. Experimental samples are thawed to RT and 25 μL aliquots are extracted alongside the calibration lines using protein precipitation (agitation for at least 5 min at RT with 400 μL of MeCN containing 25 ng/mL tolbutamide as an internal standard). Protein precipitates are separated from the extracted test compound by centrifugation at 4000 rpm for 5 min, 4° C. The resulting supernatants are diluted in a ratio of 1:2 with a relevant diluent (e.g. 0.1% formic acid in water or 1:1 MeOH:water). Samples are analysed by UPLC-MS/MS on either an API6500 QTrap or Waters 30 TQS mass spectrometer using previously optimised analytical MRM (multiple reaction monitoring) methods, specific to the test compound. The concentration of test compound in isolated samples is determined following analysis of the samples against the two replicates of the calibration line, injected before and after the sample set with an appropriate regression and weighting used. Only samples within 20% of the expected test concentration are included in the calibration line and any samples that fall outside of the limits of the calibration line will be deemed to be less than or above the limit of quantification (LLoQ/ALoQ).
Pharmacokinetic parameters such as bioavailability (% F), clearance (CL), half-life (T½) and volume of distribution are calculated by non-compartmental analysis using Phoenix Winnonlin 64 software (build 8.0). The bioavailability was calculated from p.o. dosed rats, whereas the clearance and half-life were calculated from i.v. dosed rats. Briefly, in vivo plasma concentrations, timepoints and dose values are imported into the software in a compatible format. Plasma concentration for each animal is plotted against time, and the elimination phase identified and selected. The area under the curve for each plot is calculated using a linear trapezoidal linear interpolation from which pharmacokinetic parameters can subsequently be determined. […] Compounds of the invention have much improved clearance (CL) and half-life (T½) compared to the reference examples.

Series [2] can be described thus: Kinetic aqueous solubility assay. It counts as physicochemical. Particulars: aqueous buffer, kinetic from dmso stock, 0.05M potassium phosphate buffer pH 7.4, 250 μM spike, RT. The gist of the method:
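Compound added from DMSO stock into 0.05M potassium phosphate buffer pH 7.4 at 250 μM final, shaken 30 min at RT to induce precipitation (n=2). Appearance noted visually. Filtrate concentration determined by UV peak area against calibration standards.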

The subject of series [3] is Salmonella typhimurium, strains TA98 and TA100. Briefly: Ames assay (Bacterial Reverse Mutation Test). It counts as cell-based. Particulars: TA98 and TA100, presence and absence of S-9 mix, up to 5000 μg/plate. As to the method:
Examples 50, 52 and 54 were tested, in vitro, for their ability to induce mutations in 2 histidine dependent auxotrophic mutants of Salmonella typhimurium, strains TA98 and TA100. The mutation screen was conducted using the plate incorporation method and was performed in both the presence and absence of S-9 mix (a liver post-mitochondrial fraction derived from the livers of Aroclor 1254 treated rats). The bacteria were exposed to the test items dissolved in DMSO, which was also the negative Control. The test items were tested up to the regulatory maximum dose level. The dose levels used were 5, 15, 50, 150, 500, 1500 or 5000 μg/plate, unless the highest treatment level of the test items was limited by solubility, or toxicity against the background bacterial lawn. Dose levels were expressed in terms of the free base.
There were no increases of 2-fold or greater in revertant numbers compared with negative Control values in either strain at any dose level in the presence or absence of S-9 mix, so Examples 50, 52 and 54 were not mutagenic in the Bacterial Reverse Mutation (i.e. Ames) Test under the conditions of this screen.
For orientation: The Ames test uses bacterial strains that need an amino acid and regain growth without it when mutated back.

Series [4] is described as follows: Brain to plasma (B:P) ratio in rat. Type of series: in vivo, Sprague Dawley Rats. Particulars: male, Sprague Dawley, iv, i.v. 0.5 mg/kg, 5% NMP in 30% HPBC in water, timepoints averaged 0.17-1 h.

Converted amounts (≈) assume the structure as drawn.

One may read the clearance as the volume of plasma or blood freed of the substance per unit of time. Low values mean inefficient removal, high ones efficient removal. As a reminder, the bioavailability is dose-corrected exposure relative to a reference, in per cent. As usually defined, the solubility is the concentration that dissolves in the medium under given conditions. A lower solubility goes with a poorly soluble substance. Usually Kp stands for tissue or fluid exposure divided by exposure in the circulation. In series [1] (iv), `O=C(Nc1ccc(OC(F)(F)Cl)cc1)c1ccc(=O)n(-c2cncc(F)c2)c1` [Example 54, N-[4-[Chloro(difluoro)methoxy]phenyl]-1-(5-fluoro-3-pyridyl)-6-oxo-pyridine-3-carboxamide] had a clearance of 4 mL/min/kg. For the same molecule, the half-life in series [1] (iv, read-out: T½ (converted)) is 7.6 h. In series [1] (po, p.o. dose 3 mg/kg), this molecule had a bioavailability of 97%. The same molecule gave a solubility at 30 min in series [2] of 170 µM (≈ 69.7 µg/mL). For the same molecule, the “mutagenicity in the Bacterial Reverse Mutation (Ames) Test” value in series [3] is given as “not mutagenic”. The partition ratio (Kp) in series [4] turned out to be 0.53.
